Among the data in ChEMBL document CHEMBL4420076, “Amylin and calcitonin receptor agonist” (2017) are solubility, IC50 and EC50 values, retold here.

Numbered stars: 1 amine (or outer) side, 2 acyl side, 3 side chain; on linkers, the order of the positions; unused ones are H or OH. Peptide text beside a SMILES is read from it. * marks the point of attachment. C20 diacid = O=C(O)CCCCCCCCCCCCCCCCCCC(=O)*; C18 diacid = O=C(O)CCCCCCCCCCCCCCCCC(=O)*; γGlu = O=C(O)[C@H](CCC(=O)[*:2])N[*:1]

Data set [1] can be described thus: Solubility in 100 mM bistrispropane buffer at pH 6.5 incubated for 18 hrs by UPLC analysis. Type of data set: physicochemical.
The target in data set [2] is T1, Amylin receptor AMY3; CALCR/RAMP3 (Homo sapiens, UniProt O60896+P30988).
T1 sequence (P30988 whole entry): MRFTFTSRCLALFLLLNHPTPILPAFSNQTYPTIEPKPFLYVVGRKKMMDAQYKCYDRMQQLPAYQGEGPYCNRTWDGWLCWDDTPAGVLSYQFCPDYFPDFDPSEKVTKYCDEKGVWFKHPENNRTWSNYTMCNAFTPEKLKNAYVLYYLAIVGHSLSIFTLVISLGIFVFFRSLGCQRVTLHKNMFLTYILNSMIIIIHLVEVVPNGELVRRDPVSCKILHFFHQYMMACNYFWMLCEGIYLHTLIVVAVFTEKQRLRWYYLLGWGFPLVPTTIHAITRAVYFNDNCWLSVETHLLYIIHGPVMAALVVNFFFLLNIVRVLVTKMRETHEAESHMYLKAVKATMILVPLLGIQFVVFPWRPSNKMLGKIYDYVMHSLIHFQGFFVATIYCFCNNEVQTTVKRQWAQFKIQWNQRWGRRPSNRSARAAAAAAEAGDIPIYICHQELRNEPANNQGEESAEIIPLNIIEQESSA
T1 sequence (O60896 whole entry): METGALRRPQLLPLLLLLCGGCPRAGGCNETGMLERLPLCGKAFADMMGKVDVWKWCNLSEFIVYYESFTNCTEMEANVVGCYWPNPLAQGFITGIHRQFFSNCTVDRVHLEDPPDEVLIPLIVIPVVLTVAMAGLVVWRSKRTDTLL
The experiment in a line: Displacement of [125I]-labeled rat amylin from human amylin receptor expressed in BHK tkts13 whole cells co-expressing RAMP3 incubated for 60 mins by scintillation proximity assay. Type of data set: cell-based. (In general: In a radioligand displacement assay an active substance lowers the binding of a labelled ligand.)

Data set [3] is described as follows: Solubility in 100 mM bistrispropane buffer at pH 7.0 incubated for 18 hrs by UPLC analysis. Type of data set: physicochemical.
Data set [4] is described as follows: Solubility in 100 mM bistrispropane buffer at pH 8.0 incubated for 18 hrs by UPLC analysis. Type of data set: physicochemical.
For data set [5], the target named is T2, Calcitonin receptor (Homo sapiens, UniProt P30988).
T2 sequence (P30988 whole entry): T1 sequence (P30988 whole entry)
The data set can be described thus: Agonist activity at human calcitonin receptor expressed in BHK570 cells assessed as increase in intracellular cAMP concentration incubated for 3 hrs in presence of 10% FBS by CRE luciferase reporter gene assay. Type of data set: functional, cell-based. Background: A reporter such as luciferase makes a cellular process visible.

Data set [6] addresses T2, Calcitonin receptor. The data set can be described thus: Agonist activity at human calcitonin receptor expressed in BHK570 cells assessed as increase in intracellular cAMP concentration incubated for 3 hrs in absence of albumin by CRE luciferase reporter gene assay. Type of data set: functional, cell-based.
Data set [7] is described as follows: Solubility in 100 mM glycylglycine buffer at pH 3.0 incubated for 18 hrs by UPLC analysis. Type of data set: physicochemical.
Data set [8] is described as follows: Solubility in 100 mM bistrispropane buffer at pH 7.5 incubated for 18 hrs by UPLC analysis. Type of data set: physicochemical.
Data set [9] in a line: Solubility in 100 mM bistrispropane buffer at pH 6.0 incubated for 18 hrs by UPLC analysis. Type of data set: physicochemical.
The target in data set [10] is T1, Amylin receptor AMY3; CALCR/RAMP3. The experiment in a line: Agonist activity at human amylin receptor expressed in BHK570 cells co-expressing RAMP3 assessed as increase in intracellular cAMP concentration incubated for 3 hrs in presence of 10% FBS by CRE luciferase reporter gene assay. Type of data set: functional, cell-based.
Data set [11] in a line: Solubility in 100 mM glycylglycine buffer at pH 4.0 incubated for 18 hrs by UPLC analysis. Type of data set: physicochemical.
Data set [12] deals with T1, Amylin receptor AMY3; CALCR/RAMP3. The data set can be described thus: Agonist activity at human amylin receptor expressed in BHK570 cells co-expressing RAMP3 assessed as increase in intracellular cAMP concentration incubated for 3 hrs in absence of albumin by CRE luciferase reporter gene assay. The format is functional, cell-based.

On to `CC(C)C[C@H](NC(=O)[C@H](CCC(=O)O)NC(=O)[C@H](Cc1cnc[nH]1)NC(=O)[C@H](CC(C)C)NC(=O)[C@H](CCC(=O)O)NC(=O)[C@H](C)NC(=O)[C@H](CO)NC(=O)[C@H](CC(C)C)NC(=O)[C@H](CCCNC(=N)N)NC(=O)CNC(=O)[C@@H](NC(=O)[C@@H](NC(=O)[C@H](C)NC(=O)[C@@H](NC(=O)[C@H](CO)NC(=O)[C@@H](NC(=O)[C@H](CCC(=O)O)NC(=O)[C@H](CO)NC(=O)[C@H](C)NC(=O)CC[C@H](NC(=O)CCCCCCCCCCCCCCCCC(=O)O)C(=O)O)C(C)C)[C@@H](C)O)C(C)C)C(C)C)C(=O)N[C@@H](C)C(=O)N[C@H](C(=O)N[C@@H](CC(C)C)C(=O)N1CCC[C@H]1C(=O)N[C@@H](CCCNC(=N)N)C(=O)N[C@H](C(=O)N[C@@H](CCC(=O)O)C(=O)N[C@H](C(=O)NCC(=O)N[C@@H](CO)C(=O)NCC(=O)N[C@@H](CO)C(=O)N1CCC[C@H]1C(N)=O)[C@@H](C)O)[C@@H](C)O)[C@@H](C)O` ({C18 diacid-γGlu}-ASEVSTAVVGRLSAELHELATLPRTETGSGSP-NH2), for which the solubility at 18 h in [1], in data set [3], in [4], in data set [7], in [8] and in data set [9] was not below 200 µM throughout. In data set [2], the IC50 is 1170 pM. In addition, the values for the EC50 (on Calcitonin receptor [5]; on Calcitonin receptor [6]; in data set [10]) were 11 pM, 8 pM and 38 pM, respectively.

Take `CC(C)C[C@H](NC(=O)CNC(=O)[C@H](CO)NC(=O)[C@H](C)NC(=O)CC[C@H](NC(=O)CCCCCCCCCCCCCCCCCCC(=O)O)C(=O)O)C(=O)N[C@@H](CO)C(=O)N[C@H](C(=O)N[C@@H](C)C(=O)N[C@H](C(=O)N[C@@H](CC(C)C)C(=O)NCC(=O)N[C@@H](CCCNC(=N)N)C(=O)N[C@@H](CC(C)C)C(=O)N[C@@H](CO)C(=O)N[C@@H](CCC(N)=O)C(=O)N[C@@H](CCC(=O)O)C(=O)N[C@@H](CC(C)C)C(=O)N[C@@H](Cc1cnc[nH]1)C(=O)N[C@@H](CCC(=O)O)C(=O)N[C@@H](CC(C)C)C(=O)N[C@@H](CCC(N)=O)C(=O)N[C@H](C(=O)N[C@@H](Cc1ccc(O)cc1)C(=O)N1CCC[C@H]1C(=O)N[C@@H](CCCNC(=N)N)C(=O)N[C@H](C(=O)N[C@@H](CCC(=O)O)C(=O)N[C@H](C(=O)NCC(=O)N[C@@H](CO)C(=O)NCC(=O)N[C@H](C(=O)N[C@@H](Cc1ccc(O)cc1)C(N)=O)[C@@H](C)O)[C@@H](C)O)[C@@H](C)O)[C@@H](C)O)[C@@H](C)O)[C@@H](C)O` ({C20 diacid-γGlu}-ASGLSTATLGRLSQELHELQTYPRTETGSGTY-NH2): the solubility at 18 h in data set [1], in data set [3], in data set [4], in data set [11], in [7] and in [8] was not below 200 µM in each case. Also, the solubility at 18 h in data set [9] is not below 200 µM. Moreover, the IC50 in data set [2] is 79 pM. Besides, the EC50 is 92 pM on Calcitonin receptor [5], 34 pM on Calcitonin receptor [6], 122 pM in data set [10] and 40 pM in data set [12].

As for `CC(C)C[C@H](NC(=O)CNC(=O)[C@H](CO)NC(=O)[C@H](C)NC(=O)CC[C@H](NC(=O)CCCCCCCCCCCCCCCCCCC(=O)O)C(=O)O)C(=O)N[C@@H](CO)C(=O)N[C@H](C(=O)N[C@@H](C)C(=O)N[C@H](C(=O)N[C@@H](CC(C)C)C(=O)NCC(=O)N[C@@H](CCCNC(=N)N)C(=O)N[C@@H](CC(C)C)C(=O)N[C@@H](CO)C(=O)N[C@@H](CCC(N)=O)C(=O)N[C@@H](CCC(=O)O)C(=O)N[C@@H](CC(C)C)C(=O)N[C@@H](Cc1cnc[nH]1)C(=O)N[C@@H](CCC(=O)O)C(=O)N[C@@H](CC(C)C)C(=O)N[C@@H](CCC(N)=O)C(=O)N[C@H](C(=O)N[C@@H](Cc1ccc(O)cc1)C(=O)N1CCC[C@H]1C(=O)N[C@@H](CCCNC(=N)N)C(=O)N[C@H](C(=O)N[C@@H](CCC(=O)O)C(=O)N[C@H](C(=O)NCC(=O)N[C@@H](CO)C(=O)N[C@@H](C)C(=O)N[C@H](C(=O)N[C@@H](Cc1ccc(O)cc1)C(N)=O)[C@@H](C)O)[C@@H](C)O)[C@@H](C)O)[C@@H](C)O)C(C)C)[C@@H](C)O` ({C20 diacid-γGlu}-ASGLSTAVLGRLSQELHELQTYPRTETGSATY-NH2), the solubility at 18 h in data set [1], in [3], in data set [4], in data set [11], in data set [7] and in data set [8] was not below 200 µM in each case. Besides, the solubility at 18 h in [9] was not below 200 µM. In addition, the IC50 in data set [2] is 244 pM. Further, the EC50 is 37 pM on Calcitonin receptor [5], 52 pM at Calcitonin receptor [6] and 77 pM in data set [10].

On to `CC(C)C[C@H](NC(=O)CC[C@H](NC(=O)CCCCCCCCCCCCCCCCCCC(=O)O)C(=O)O)C(=O)N[C@@H](CO)C(=O)NCC(=O)N[C@@H](CC(C)C)C(=O)N[C@@H](CO)C(=O)N[C@H](C(=O)N[C@@H](C)C(=O)N[C@H](C(=O)N[C@@H](CC(C)C)C(=O)NCC(=O)N[C@@H](CCCNC(=N)N)C(=O)N[C@@H](CC(C)C)C(=O)N[C@@H](CO)C(=O)N[C@@H](C)C(=O)N[C@@H](CCC(=O)O)C(=O)N[C@@H](CC(C)C)C(=O)N[C@@H](Cc1cnc[nH]1)C(=O)N[C@@H](CCC(=O)O)C(=O)N[C@@H](CC(C)C)C(=O)N[C@@H](CO)C(=O)N[C@H](C(=O)N[C@@H](Cc1ccc(O)cc1)C(=O)N1CCC[C@H]1C(=O)N[C@@H](CCCNC(=N)N)C(=O)N[C@H](C(=O)N[C@@H](CCC(=O)O)C(=O)N[C@H](C(=O)NCC(=O)N[C@@H](CO)C(=O)NCC(=O)N[C@H](C(=O)N[C@@H](Cc1ccc(O)cc1)C(N)=O)[C@@H](C)O)[C@@H](C)O)[C@@H](C)O)[C@@H](C)O)C(C)C)[C@@H](C)O` ({C20 diacid-γGlu}-LSGLSTAVLGRLSAELHELSTYPRTETGSGTY-NH2), for which the solubility at 18 h in data set [1], in [3], in data set [4], in data set [11], in data set [7] and in data set [8] was not below 200 µM in each case. Also, in data set [9], the solubility at 18 h was not below 200 µM. Also, the IC50 in data set [2] was 11800 pM. The EC50 is 34 pM at Calcitonin receptor [5], 28 pM at Calcitonin receptor [6], 64 pM in [10] and 24 pM in [12].

With `CC(C)C[C@H](NC(=O)CC[C@H](NC(=O)CCCCCCCCCCCCCCCCCCC(=O)O)C(=O)O)C(=O)N[C@@H](CO)C(=O)N[C@@H](CCC(N)=O)C(=O)N[C@@H](CC(C)C)C(=O)N[C@@H](CO)C(=O)N[C@H](C(=O)N[C@@H](CC(C)C)C(=O)N[C@H](C(=O)N[C@@H](CC(C)C)C(=O)NCC(=O)N[C@@H](CCCNC(=N)N)C(=O)N[C@@H](CC(C)C)C(=O)N[C@@H](CO)C(=O)N[C@@H](CCC(N)=O)C(=O)N[C@@H](CCCNC(=N)N)C(=O)N[C@@H](CC(C)C)C(=O)N[C@@H](Cc1cnc[nH]1)C(=O)N[C@@H](CCCNC(=N)N)C(=O)N[C@@H](CC(C)C)C(=O)N[C@@H](CCC(N)=O)C(=O)N[C@H](C(=O)N[C@@H](Cc1ccc(O)cc1)C(=O)N1CCC[C@H]1C(=O)N[C@@H](CCCNC(=N)N)C(=O)N[C@H](C(=O)N[C@@H](CCC(N)=O)C(=O)N[C@H](C(=O)NCC(=O)N[C@@H](CO)C(=O)N[C@@H](CCC(N)=O)C(=O)N[C@H](C(=O)N[C@@H](Cc1ccc(O)cc1)C(N)=O)[C@@H](C)O)[C@@H](C)O)[C@@H](C)O)[C@@H](C)O)C(C)C)[C@@H](C)O` ({C20 diacid-γGlu}-LSQLSTLVLGRLSQRLHRLQTYPRTQTGSQTY-NH2), in [2], the IC50 was 10700 pM. Further, the EC50 is 50 pM at Calcitonin receptor [5], 12 pM on Calcitonin receptor [6], 44 pM in data set [10] and 10 pM in data set [12].

The solubility is the concentration that dissolves in the medium under given conditions. High values mean a readily soluble substance, low ones a poorly soluble substance. A word on the IC50: it is the concentration needed to halve the response being measured. What is called EC50 is the concentration giving half of the maximal effect.
